Assay results as given in ChEMBL document CHEMBL1127771, “Structure-activity relationships in a series of monocyclic endothelin analogues” (Bioorg Med Chem Lett, 1994).
Where a SMILES comes first, the peptide text is derived from it. Bridges are numbered along the chain shown (N, C = ends). [ ]: non-standard residue; d: D form. Aoc = NCCCCCCCC(=O)O; Ava = NCCCCC(=O)O

Assays:
Rattus norvegicus = organism: Rattus norvegicus; experiment: Inhibition of ET-1 induced accumulation of inositol phosphates (IP-3) in rat skin fibroblasts; type: functional
Endothelin-1 receptor = molecular target: T1, Endothelin-1 receptor (Rattus norvegicus, UniProt P26684); experiment: In vitro binding affinity against Endothelin A receptor by using endothelin (ET-1) as radioligand in rat heart ventricle
T1 sequence (P26684 whole entry): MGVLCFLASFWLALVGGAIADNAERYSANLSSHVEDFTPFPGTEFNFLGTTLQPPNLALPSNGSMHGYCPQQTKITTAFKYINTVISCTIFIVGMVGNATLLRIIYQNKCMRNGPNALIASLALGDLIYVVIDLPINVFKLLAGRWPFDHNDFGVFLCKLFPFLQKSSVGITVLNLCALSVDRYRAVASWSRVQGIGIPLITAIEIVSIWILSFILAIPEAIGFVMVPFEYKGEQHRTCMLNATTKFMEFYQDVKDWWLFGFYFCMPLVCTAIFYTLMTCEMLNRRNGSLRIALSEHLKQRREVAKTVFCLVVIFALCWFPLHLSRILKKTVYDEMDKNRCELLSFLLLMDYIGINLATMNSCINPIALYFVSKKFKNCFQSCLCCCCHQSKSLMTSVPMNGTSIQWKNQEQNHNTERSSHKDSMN

[1] = molecular target: T2, Endothelin receptor type B (Rattus norvegicus, UniProt P21451); experiment: Binding affinity against Endothelin B receptor in rat cerebellar membrane (ET-B) from adult blue laurie rat; type: cell membranes, Cerebellum
T2 sequence (P21451 whole entry): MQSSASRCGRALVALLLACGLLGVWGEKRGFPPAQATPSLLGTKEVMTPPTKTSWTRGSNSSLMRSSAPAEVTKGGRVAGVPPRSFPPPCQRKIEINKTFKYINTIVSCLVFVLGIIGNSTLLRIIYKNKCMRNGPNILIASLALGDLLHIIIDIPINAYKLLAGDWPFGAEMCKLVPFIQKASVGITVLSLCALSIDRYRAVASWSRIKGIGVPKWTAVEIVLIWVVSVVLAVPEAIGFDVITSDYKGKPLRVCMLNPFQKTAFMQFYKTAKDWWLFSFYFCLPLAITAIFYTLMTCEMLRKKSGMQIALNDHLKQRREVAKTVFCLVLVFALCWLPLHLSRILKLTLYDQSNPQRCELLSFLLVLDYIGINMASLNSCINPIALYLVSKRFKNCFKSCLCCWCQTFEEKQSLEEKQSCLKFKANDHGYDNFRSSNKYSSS

[2] = molecular target: T2, Endothelin receptor type B; experiment: Binding affinity against endothelin receptor in rat cerebellar membrane (ET-B) from adult blue laurie rat; type: cell membranes, Cerebellum

Structure (SMILES)	IC50 (Rattus norvegicus) [nM]	IC50 (Endothelin-1 receptor) [nM]	IC50 [1] [nM]	IC50 [2] [nM]
CC[C@H](C)[C@H](NC(=O)[C@H](CC(=O)O)NC(=O)[C@H](CC(C)C)NC(=O)[C@H](Cc1c[nH]cn1)NC(=O)[C@@H]1CSSC[C@H](N)C(=O)N[C@@H](CO)C(=O)NCCCCCCC(=O)N[C@@H](C(C)C)C(=O)N[C@@H](Cc2ccc(O)cc2)C(=O)N[C@@H](Cc2ccccc2)C(=O)N1)C(=O)N[C@H](C(=O)N[C@@H](Cc1c[nH]c2ccccc12)C(=O)O)[C@@H](C)CC [listing 1 of 2 here]	8000			
CC[C@H](C)[C@H](NC(=O)[C@H](CC(=O)O)NC(=O)[C@H](CC(C)C)NC(=O)[C@H](Cc1c[nH]cn1)NC(=O)[C@@H]1CSSC[C@H](N)C(=O)N[C@@H](CO)C(=O)NCCCCCCC(=O)N[C@@H](C(C)C)C(=O)N[C@@H](Cc2ccc(O)cc2)C(=O)N[C@@H](Cc2ccccc2)C(=O)N1)C(=O)N[C@H](C(=O)N[C@@H](Cc1c[nH]c2ccccc12)C(=O)O)[C@@H](C)CC [listing 2 of 2 here]		2500		
CC[C@H](C)[C@H](NC(=O)[C@H](CC(=O)O)NC(=O)[C@H](CC(C)C)NC(=O)[C@H](Cc1c[nH]cn1)NC(=O)[C@@H]1CSSC[C@H](N)C(=O)N[C@@H](CO)C(=O)N[C@@H](CC(=O)O)C(=O)N[C@@H](CCCCN)C(=O)N[C@@H](CCC(=O)O)C(=O)N[C@@H](C(C)C)C(=O)N[C@@H](Cc2ccc(O)cc2)C(=O)N[C@@H](Cc2ccccc2)C(=O)N1)C(=O)N[C@H](C(=O)N[C@@H](Cc1c[nH]c2ccccc12)C(=O)O)[C@@H](C)CC (H-CSDKEVYFCHLDIIW-OH; disulfide 1-9) [listing 1 of 2 here]		3500	1100	
CC[C@H](C)[C@H](NC(=O)[C@H](CC(=O)O)NC(=O)[C@H](CC(C)C)NC(=O)[C@H](Cc1c[nH]cn1)NC(=O)[C@@H]1CSSC[C@H](N)C(=O)N[C@@H](CO)C(=O)N[C@@H](CC(=O)O)C(=O)N[C@@H](CCCCN)C(=O)N[C@@H](CCC(=O)O)C(=O)N[C@@H](C(C)C)C(=O)N[C@@H](Cc2ccc(O)cc2)C(=O)N[C@@H](Cc2ccccc2)C(=O)N1)C(=O)N[C@H](C(=O)N[C@@H](Cc1c[nH]c2ccccc12)C(=O)O)[C@@H](C)CC (H-CSDKEVYFCHLDIIW-OH; disulfide 1-9) [listing 2 of 2 here]	> 10000			
CC[C@H](C)[C@H](NC(=O)[C@H](CC(=O)O)NC(=O)[C@H](CC(C)C)NC(=O)[C@H](Cc1cnc[nH]1)NC(=O)[C@@H]1CSSC[C@H](N)C(=O)N[C@@H](CO)C(=O)N[C@@H](CO)C(=O)N[C@@H](CC(C)C)C(=O)N[C@@H](CCSC)C(=O)N[C@@H](CC(=O)O)C(=O)N[C@@H](CCCCN)C(=O)N[C@@H](CCC(=O)O)C(=O)N1)C(=O)N[C@H](C(=O)N[C@@H](Cc1c[nH]c2ccccc12)C(=O)O)[C@@H](C)CC (H-CSSLMDKECHLDIIW-OH; disulfide 1-9)		49000		> 10000
CC[C@H](C)[C@H](NC(=O)[C@H](CC(=O)O)NC(=O)[C@H](CC(C)C)NC(=O)[C@H](Cc1c[nH]cn1)NC(=O)[C@@H]1CSSC[C@H](N)C(=O)N[C@@H](CO)C(=O)N[C@@H](CO)C(=O)N[C@@H](CO)C(=O)N[C@@H](C(C)C)C(=O)N[C@@H](Cc2ccc(O)cc2)C(=O)N[C@@H](Cc2ccccc2)C(=O)N1)C(=O)N[C@H](C(=O)N[C@@H](Cc1c[nH]c2ccccc12)C(=O)O)[C@@H](C)CC (H-CSSSVYFCHLDIIW-OH; disulfide 1-8)	5000	1200	60	
CC[C@H](C)[C@H](NC(=O)[C@H](CC(=O)O)NC(=O)[C@H](CC(C)C)NC(=O)[C@H](Cc1c[nH]cn1)NC(=O)[C@@H]1CSSC[C@H](N)C(=O)N[C@@H](CO)C(=O)N[C@@H](CO)C(=O)N[C@@H](C(C)C)C(=O)N[C@@H](Cc2ccc(O)cc2)C(=O)N[C@@H](Cc2ccccc2)C(=O)N1)C(=O)N[C@H](C(=O)N[C@@H](Cc1c[nH]c2ccccc12)C(=O)O)[C@@H](C)CC (H-CSSVYFCHLDIIW-OH; disulfide 1-7)		1800	1400	
CC[C@H](C)[C@H](NC(=O)[C@H](CC(=O)O)NC(=O)[C@H](CC(C)C)NC(=O)[C@H](Cc1c[nH]cn1)NC(=O)[C@@H]1CSSC[C@H](N)C(=O)N[C@@H](CO)C(=O)N[C@@H](C(C)C)C(=O)N[C@@H](Cc2ccc(O)cc2)C(=O)N[C@@H](Cc2ccccc2)C(=O)N1)C(=O)N[C@H](C(=O)N[C@@H](Cc1c[nH]c2ccccc12)C(=O)O)[C@@H](C)CC (H-CSVYFCHLDIIW-OH; disulfide 1-6)		2800	1700	
CC[C@H](C)[C@H](NC(=O)[C@H](CC(=O)O)NC(=O)[C@H](CC(C)C)NC(=O)[C@H](Cc1c[nH]cn1)NC(=O)[C@@H]1CSSC[C@H](N)C(=O)N[C@@H](CO)C(=O)NCCCCCCCC(=O)N[C@@H](C(C)C)C(=O)N[C@@H](Cc2ccc(O)cc2)C(=O)N[C@@H](Cc2ccccc2)C(=O)N1)C(=O)N[C@H](C(=O)N[C@@H](Cc1c[nH]c2ccccc12)C(=O)O)[C@@H](C)CC (H-CS[Aoc]VYFCHLDIIW-OH; disulfide 1-7)	3000			
CC[C@H](C)[C@H](NC(=O)[C@H](CC(=O)O)NC(=O)[C@H](CC(C)C)NC(=O)[C@H](Cc1cnc[nH]1)NC(=O)[C@@H]1CSSC[C@H](N)C(=O)N[C@@H](CO)C(=O)NCCCCCCCC(=O)N[C@@H](C(C)C)C(=O)N[C@@H](Cc2ccc(O)cc2)C(=O)N[C@@H](Cc2ccccc2)C(=O)N1)C(=O)N[C@H](C(=O)N[C@@H](Cc1c[nH]c2ccccc12)C(=O)O)[C@@H](C)CC (H-CS[Aoc]VYFCHLDIIW-OH; disulfide 1-7)		1600	240	
CC[C@H](C)[C@H](NC(=O)[C@H](CC(=O)O)NC(=O)[C@H](CC(C)C)NC(=O)[C@H](Cc1c[nH]cn1)NC(=O)[C@@H]1CSSC[C@H](N)C(=O)N[C@@H](CO)C(=O)NCCCCC(=O)N[C@@H](C(C)C)C(=O)N[C@@H](Cc2ccc(O)cc2)C(=O)N[C@@H](Cc2ccccc2)C(=O)N1)C(=O)N[C@H](C(=O)N[C@@H](Cc1c[nH]c2ccccc12)C(=O)O)[C@@H](C)CC (H-CS[Ava]VYFCHLDIIW-OH; disulfide 1-7)	> 10000	1800		350
CC[C@H](C)[C@H](NC(=O)[C@H](CC(=O)O)NC(=O)[C@H](CC(C)C)NC(=O)[C@H](Cc1c[nH]cn1)NC(=O)[C@@H]1CSSC[C@H](N)C(=O)N[C@@H](C(C)C)C(=O)N[C@@H](Cc2ccc(O)cc2)C(=O)N[C@@H](Cc2ccccc2)C(=O)N1)C(=O)N[C@H](C(=O)N[C@@H](Cc1c[nH]c2ccccc12)C(=O)O)[C@@H](C)CC (H-CVYFCHLDIIW-OH; disulfide 1-5)	2200	6500	1700	
